Values after ≈ are worked out from the molar mass of the structure shown.
Columns and labels:
Assay in all cases: ≥ marks a high value that may be exact or a test limit, other limits are often not marked, values filed in µg/mL are converted to µM
[1] = system: Vibrio harveyi BCRC 13812
[2] = system: Vibrio alginolyticus
[3] = system: Staphylococcus sp. BCRC 10451
[4] = system: Staphylococcus aureus BCRC 10780
[5] = system: Streptococcus pneumoniae BCRC 10794
[6] = system: Salmonella enterica subsp. enterica serovar Typhimurium ATCC 14028
[7] = system: Klebsiella pneumoniae ATCC 10031
[8] = system: Pseudomonas aeruginosa ATCC 13388
[9] = system: Escherichia coli ATCC 11219
[10] = system: Staphylococcus aureus ATCC 6538
[11] = system: Staphylococcus aureus ATCC 25923
[12] = system: Pseudomonas aeruginosa ATCC 47085
[13] = system: Escherichia coli ATCC 25922
[14] = system: Klebsiella pneumoniae ATCC 700603
[15] = system: Staphylococcus aureus ATCC 33591
[16] = system: Pseudomonas aeruginosa ATCC 27853
[17] = system: Staphylococcus aureus ATCC 700699
[18] = system: Staphylococcus aureus ATCC 29213
[19] = system: Botrytis cinerea
[20] = system: Pseudomonas corrugata DSM 7228
[21] = system: Cladosporium herbarum
[22] = system: Clavibacter michiganensis subsp. michiganensis DSM 46294
[23] = system: Pseudomonas syringae pv. syringae DSM 10604
[24] = system: Alternaria alternata
[25] = system: Pseudomonas syringae pv. tomato DC3000
[26] = system: Pectobacterium carotovorum subsp. carotovorum DSM 30168
[27] = system: Xanthomonas vesicatoria DSM 50861
[28] = system: Staphylococcus aureus 90857
[29] = system: Listeria monocytogenes LO28
[30] = system: Cronobacter sakazakii DPC 6440

For `CC[C@H](C)[C@H](NC(=O)[C@H](Cc1ccccc1)NC(C)=O)C(=O)N[C@@H](Cc1ccccc1)C(=O)N[C@@H](Cc1cnc[nH]1)C(=O)N[C@H](C(=O)N[C@H](C(=O)N[C@@H](CCCCN)C(=O)NCC(=O)N[C@@H](CC(C)C)C(=O)N[C@@H](Cc1ccccc1)C(N)=O)[C@@H](C)CC)[C@@H](C)CC` [FIFHIIKGLF], the MIC [1] was 5.06 µM (≈ 6.46 µg/mL), the MIC [2] was 5.06 µM (≈ 6.46 µg/mL) and the MIC [3] was 5.06 µM (≈ 6.46 µg/mL). It also gave an MIC [4] of 5.06 µM (≈ 6.46 µg/mL).
Compound `CC[C@H](C)[C@H](NC(=O)[C@H](Cc1ccccc1)NC(=O)CNC(C)=O)C(=O)N[C@@H](Cc1ccccc1)C(=O)N[C@@H](Cc1cnc[nH]1)C(N)=O` [GFIFH] has an MIC [4] of at least 161 µM and an MIC [5] of at least 161 µM.
`CC[C@H](C)[C@H](NC(=O)CN)C(=O)N[C@@H](Cc1cnc[nH]1)C(=O)N[C@@H](CC(=O)O)C(=O)N[C@H](C(=O)N[C@@H](CC(C)C)C(=O)N[C@@H](CCCCN)C(=O)N[C@@H](Cc1ccc(O)cc1)C(=O)N[C@@H](C)C(=O)N[C@@H](CCCCN)C(=O)N1CCC[C@H]1C(=O)N[C@@H](CO)C(N)=O)[C@@H](C)CC` [GIHDILKYAKPS] showed an MIC [6] of 10 µM (≈ 13.4 µg/mL), an MIC [7] of 10 µM (≈ 13.4 µg/mL) and an MIC [8] of 15 µM (≈ 20.1 µg/mL). The MIC [9] was 5 µM (≈ 6.7 µg/mL) and the MIC [10] was 10 µM (≈ 13.4 µg/mL).
`CC[C@H](C)[C@H](NC(=O)CN)C(=O)N[C@@H](CCCN=C(N)N)C(=O)N[C@@H](CC(=O)O)C(=O)N[C@H](C(=O)N[C@@H](CC(C)C)C(=O)N[C@@H](CCCCN)C(=O)N[C@@H](Cc1ccc(O)cc1)C(=O)NCC(=O)N[C@@H](CCCCN)C(=O)N1CCC[C@H]1C(=O)N[C@@H](CO)C(N)=O)[C@@H](C)CC` [GIRDILKYGKPS] was tested, and the MIC [6] was 5 µM (≈ 6.73 µg/mL), the MIC [7] was 5 µM (≈ 6.73 µg/mL) and the MIC [8] was 20 µM (≈ 26.9 µg/mL). It also gave an MIC [9] of 5 µM (≈ 6.73 µg/mL) and an MIC [10] of 10 µM (≈ 13.5 µg/mL).
For `CC[C@H](C)[C@H](NC(=O)[C@H](CCCN=C(N)N)NC(=O)[C@H](CC(C)C)NC(=O)[C@H](Cc1ccccc1)NC(=O)[C@H](CCC(=O)O)NC(=O)[C@H](CCCCN)NC(=O)[C@H](Cc1c[nH]c2ccccc12)NC(=O)[C@H](CCCCN)NC(=O)[C@H](Cc1c[nH]c2ccccc12)NC(=O)CNC(=O)[C@H](Cc1c[nH]c2ccccc12)NC(=O)[C@H](CCCCN)NC(=O)[C@H](Cc1c[nH]c2ccccc12)NC(=O)[C@H](CC(C)C)NC(=O)[C@H](CC(C)C)NC(=O)CN)C(=O)N[C@H](C(=O)NCC(=O)N[C@@H](Cc1ccc(O)cc1)C(N)=O)C(C)C` [GLLWKWGWKWKEFLRIVGY], the MIC [11] was over 415 µM and the MIC [12] was at least 415 µM.
With `CC[C@H](C)[C@H](NC(=O)[C@H](CC(=O)O)NC(=O)[C@H](CCCCN)NC(=O)[C@H](C)NC(=O)[C@H](C)NC(=O)CNC(=O)[C@H](CCCCN)NC(=O)[C@H](C)NC(=O)[C@@H](NC(=O)[C@H](CC(=O)O)NC(=O)[C@@H](NC(=O)[C@@H](NC(=O)CN)C(C)C)C(C)C)[C@@H](C)CC)C(=O)N[C@@H](C)C(=O)NCC(=O)N[C@@H](Cc1cnc[nH]1)C(=O)N[C@@H](CC(C)C)C(=O)N[C@@H](C)C(=O)N[C@@H](CO)C(=O)N[C@@H](CCCCN)C(=O)N[C@H](C(=O)N[C@@H](CCSC)C(=O)N[C@@H](CC(N)=O)C(=O)N[C@@H](CCCCN)C(=O)N[C@@H](CC(C)C)C(N)=O)C(C)C` [GVVDIAKGAAKDIAGHLASKVMNKL] the MIC [13] was over 100 µM, the MIC [14] was over 100 µM and the MIC [15] was at least 100 µM. For the same compound, the MIC [16] was over 100 µM, the MIC [17] was at least 100 µM and the MIC [18] was over 100 µM.
For `CC(C)C[C@H](NC(=O)[C@H](C)NC(=O)[C@H](CCCN=C(N)N)NC(=O)[C@H](CCCCN)NC(=O)[C@H](CC(C)C)NC(=O)[C@H](C)NC(=O)[C@H](CCCN=C(N)N)NC(=O)[C@H](C)NC(=O)[C@H](C)NC(=O)[C@H](CCCCN)NC(=O)[C@H](CCCCN)NC(=O)[C@@H](N)CCCCN)C(N)=O` [KKKAARALKRAL], the MIC [19] was at least 73.9 µM, the MIC [20] was 29.5 µM (≈ 40 µg/mL) and the MIC [21] was 29.5 µM (≈ 40 µg/mL). The MIC [22] was 29.5 µM (≈ 40 µg/mL), the MIC [23] was 29.5 µM (≈ 40 µg/mL) and the MIC [24] was at least 73.9 µM. For the same compound, the MIC [25] was 7.39 µM (≈ 9.99 µg/mL), the MIC [26] was 29.5 µM (≈ 40 µg/mL) and the MIC [27] was 29.5 µM (≈ 40 µg/mL).
With `CC[C@H](C)[C@H](NC(=O)[C@H](CC(C)C)NC(=O)[C@@H](N)CC(C)C)C(=O)N[C@@H](CCCN=C(N)N)C(=O)N[C@@H](C)C(=O)N[C@@H](C)C(=O)N[C@@H](CCCCN)C(=O)N[C@@H](CCCCN)C(=O)N[C@@H](Cc1ccccc1)C(=O)N[C@H](C(=O)N[C@@H](CCCCN)C(=O)N[C@@H](CCCCN)C(N)=O)[C@@H](C)CC` [LLIRAAKKFIKK] the MIC [19] was at least 70 µM, the MIC [28] was at least 62.5 µM and the MIC [20] was 28 µM (≈ 40 µg/mL). For the same compound, the MIC [21] was 28 µM (≈ 40 µg/mL), the MIC [22] was 28 µM (≈ 40 µg/mL) and the MIC [23] was 28 µM (≈ 40 µg/mL). The MIC [24] was at least 70 µM, the MIC [25] was 28 µM (≈ 40 µg/mL) and the MIC [26] was 28 µM (≈ 40 µg/mL). It also gave an MIC [27] of 28 µM (≈ 40 µg/mL).
`CC(C)C[C@H](NC(=O)[C@H](C)NC(=O)[C@H](CCCCN)NC(=O)[C@H](CCCCN)NC(=O)[C@H](CC(C)C)NC(=O)[C@H](Cc1ccccc1)NC(=O)[C@H](CCCN=C(N)N)NC(=O)[C@@H](N)CC(C)C)C(=O)N[C@@H](CCCCN)C(=O)N[C@@H](CCCCN)C(=O)N[C@@H](CC(C)C)C(=O)N[C@@H](Cc1ccccc1)C(N)=O` [LRFLKKALKKLF] showed an MIC [28] of 0.625 µM (≈ 0.94 µg/mL), an MIC [20] of 0.332 µM (≈ 0.5 µg/mL) and an MIC [22] of 0.166 µM (≈ 0.25 µg/mL). It also gave an MIC [23] of 0.0664 µM (≈ 0.0999 µg/mL), an MIC [25] of 0.332 µM (≈ 0.5 µg/mL) and an MIC [26] of 0.664 µM (≈ 0.999 µg/mL). It also gave an MIC [27] of 0.166 µM (≈ 0.25 µg/mL).
`CC[C@H](C)[C@H](NC(=O)[C@@H](N)Cc1c[nH]c2ccccc12)C(=O)N[C@@H](CCC(N)=O)C(=O)N1CCC[C@H]1C(=O)N[C@@H](CCCCN)C(=O)N[C@H](C(=O)N[C@@H](CCCCN)C(=O)N[C@@H](C)C(=O)N[C@H](C(=O)N1CCC[C@H]1C(=O)N[C@@H](Cc1ccc(O)cc1)C(=O)N[C@H](C(=O)N[C@@H](CCCN=C(N)N)C(=O)N[C@@H](Cc1ccc(O)cc1)C(=O)N[C@@H](CC(C)C)C(=O)O)C(C)C)[C@@H](C)CC)[C@@H](C)O` [WIQPKTKAIPYVRYL] gave an MIC [29] of 19.5 µM (≈ 36.6 µg/mL) and an MIC [30] of at least 78.1 µM.
Compound `CC[C@H](C)[C@H](NC(=O)[C@@H](N)Cc1c[nH]c2ccccc12)C(=O)N[C@@H](CCC(N)=O)C(=O)N1CCC[C@H]1C(=O)N[C@@H](CCCCN)C(=O)N[C@H](C(=O)N[C@@H](CCCCN)C(=O)N[C@H](C(=O)N[C@H](C(=O)N1CCC[C@H]1C(=O)N[C@@H](Cc1ccc(O)cc1)C(=O)N[C@H](C(=O)O)C(C)C)[C@@H](C)CC)C(C)C)[C@@H](C)O` [WIQPKTKVIPYV] has an MIC [29] of at least 156 µM and an MIC [30] of at least 625 µM.
